Reference: patent US9303069B2, “Peptides for treating cancer” (University of Mississippi Medical Center, priority 2014, dated 2016)

Tests used:
Type in all cases: cell-based, human
[1] = tested on: HOSE and HOSE/IRIS cells; test: Survival of HOSE versus HOSE/IRIS cells; settings: 10 μM inhibitor, 24 hours
Protocol: To test that, HOSE or HOSE/IRIS cells were incubated for 24 hours with 10 μM of ErbB2 (CP-724714), EGFR (Erlotinib), TrkB (K252a), JNK (SP600125), p38 (SB203580), ERK (PD98059) and PI3′K/AKT (LY294002) inhibitors. […] Taken together, BRCA1-IRIS overexpression activates AKT and ERK, thereby inactivating FOXO3a and promoting Cyclin D1, survivin, Bcl-2 and NF-κB expression and suppressing p27 expression (FIG. 15).
HOSE cells overexpressing IRIS show a higher degree of resistance to cisplatin than HOSE cells (compare blue to black line in FIG. 30).
Cell viability measurement. Cell viability under different experimental conditions was determined using the MTS assay […]. Briefly, SKOV3, OVACAR3, HOSE and HOSE/IRIS cells (2.5×10^4 cells per well) were seeded in 96 well plates and incubated overnight at 37° C. in 10% humidified CO2 atmosphere in varying concentrations of IRIS peptide, or inhibitors of ErbB2 (CP-724714), EGFR (Erlotinib), TrkB (K252a), JNK (SP600125), p38 (SB203580), ERK (PD98059) and PI3′K/AKT (LY294002) inhibitors for 24 hours at 37° C. Cell Titer 96® Aqueous (Promega, Madison, Wis., USA) was used to measure viability following manufactures instructions. Cell viability (%) was expressed as a ratio to control cells×100. Growth inhibition was also determined by manually counting cells in five different microscopic fields. Change in cell numbers (fold) was expressed as a ratio to control cells×100. All experiments were done in at least triplicates, three different times. * is p≦0.05, ** is p≦0.001 and *** is p≦0.0001.

[2] = tested on: HME and HME/IRIS cells; test: Survival of HME versus HME/IRIS cells with pathway inhibitors; settings: 10 μM inhibitor, 24 hours
Protocol: Similar numbers of HME or HME/IRIS were grown in the presence of 10 μM of ERK (PD98059), JNK (SP600125), p38 (SB203580), EGFR (Erlotinib), ErbB2 (CP-724714) or PI3′K/AKT (LY294002) inhibitors for 24 hours. In keeping with published data (Nakuci et al., 2006; Hao and ElShamy, 2007; Chock et al., 2010a), BRCA1-IRIS overexpression promoted cells proliferation (FIG. 73). Thus, data are represented as percentage of treatment compared to no treatment in each cell line separately. […] Thus, as expected, cells overexpressing BRCA1-IRIS exerts some of their functions through EGFR/ErbB2 that feeds into PI3′K/AKT/mTOR and MAPK signaling pathways (FIG. 74).
Cell viability measurement. Cell viability under different experimental conditions was determined using the MTS assay. Briefly, cells (2.5×10^4 cells per well) were seeded in 96-well plates and incubated overnight at 37° C. in 10% humidified CO2 atmosphere. The next day they were incubated with varying concentration of peptide, or inhibitors for 24 hours at 37° C. Cell viability was determined using cell Titer 96® Aqueous (Promega, Madison, Wis., USA) following manufacturer's instructions. Cell viability (%) was expressed as a ratio of treated cells to control cells×100. Growth inhibition was also determined by manually counting cells in five different microscopic fields. Change in cell numbers (fold) was expressed as a ratio of the means of these recording of treated cells compared to control cells×100. Each experiment was done in triplicate, repeated three separate times.

[3] = tested on: AKT, ERK, MDM2 and Skp2; test: Signalling proteins in SKOV3 and OVCAR3 cells (Western)
Excerpt: Finally, to further dissect the IRIS-induced cisplatin resistance pathway, PI3′K/AKT (using […]) and ERK (using PD98059) were inactivated and compared to IRIS peptide in two aggressive ovarian cancer cell lines. […] Phosphorylation of cytoplasmic or nuclear FOXO3a by p-AKT and/or p-ERK promotes MDM2 binding and priming ubiquitylation, which is then followed by Skp2 branching ubiquitylation and FOXO3a degradation (Huang and Tindall, 2011). FOXO was less phosphorylated in LY, PD as well as IRIS-silenced/inactivated SKOV3 or OVCAR3 cells (FIG. 34). […] Consistently, in BRCA1-IRIS silenced/inactivated cells accumulation of unphosphorylated/stabilized FOXO3a was detected. In contrast, FOXO3a was still decreased to different degrees in LY or PD treated cells (FIG. 34).

[4] = tested on: BRCA1-IRIS; test: BRCA1-IRIS expression in breast cells (Western); settings: MDA-MB-231 and MDA-MB-468; 5 μM IRIS peptide, 10 μM LY294002 or 10 μM PD98059 24 hours; siRNA 72 hours
Protocol: HME and HME/IRIS cells were treated with 10, 20 and 50 μM of paclitaxel for 24 hours. Compared to HME/IRIS cells, untreated HME cells express very low level of BRCA1-IRIS (FIG. 68, left). […] Both EGF and NRG1, which were secreted at higher levels from untreated HME/IRIS cells, remained high after paclitaxel (until ˜50 μM, FIG. 68, left), whereas in HME cells, both were induced by low paclitaxel treatment (FIG. 68, left). Consistently, in HME/IRIS cells EGFR was phosphorylated on Y1173 (activated by EGF when EGFR is in complex with ErbB2) and ErbB2 on Y1248 (activated by NRG1 when ErbB2 is in complex with ErbB3) remained the same after paclitaxel treatment (until ˜50 μM, FIG. 68, left). Phosphorylated EGFR-Y1173 and ErbB2-Y1248 was only observed in paclitaxel treated HME cells, especially at low concentration (FIG. 68, left).
Survived/paclitaxel-resistant cells were then propagated in the absence of paclitaxel and analyzed. Again, the intrinsically high level of BRCA1-IRIS was not affected by paclitaxel in HME/IRIS cells (FIG. 69, left). […] The expressions of EGFR, ErbB2 and ErbB3 were high in HME/IRIS and HME cells (FIG. 69, left). Despite an intrinsic increase in HME/IRIS and paclitaxel-acquired increase in HME cells in AKT activation, FOXO inactivation/degradation and thus activation increase in CyclinD1, survivin, Bcl-2, Bcl-xL and NF-κB was observed (FIG. 69, right).
To test that hypothesis, an intron 11 peptide (right in FIG. 26) fused to a cell/nucleus penetrating signal at its N-terminus (left in FIG. 26) was synthesized (hereafter IRIS peptide). First, to assess the effect of this IRIS peptide, equal numbers of HME, HME/IRIS, MDA-MB-231, MDA-MB-468 and BT549 cells were exposed to increasing concentrations of scrambled or IRIS peptide for 48 hours. […] It is possible that preventing BRCA1-IRIS-X complex formation destabilizes BRCA1-IRIS and perhaps leads to its degradation.
To investigate whether inactivating BRCA1-IRIS could sensitize TNBC to paclitaxel-induced cell death, HME cells were exposed to 0.5 μM, while HME/IRIS, MDA-MB-231, MDA-MB-468 and BT549 cells were exposed to 5 μM of IRIS peptide alone or with 5, 10 or 20 μM of paclitaxel for 24 hours. […] Again, IRIS peptide alone at these concentrations led to 50% reduction in survival of all cell lines. […] Indeed, in the presence of IRIS peptide >60%, >70% and >90% reduction in the survival of all cell lines in the presence of 5, 10 and 20 μM of paclitaxel, respectively (FIG. 84).
To relate the effect of IRIS peptide on cell survival to the effect of BRCA1-IRIS on AKT and ERK survival pathways, MDA-MB-231 and MDA-MB-468 were treated with vehicle, 5 μM of IRIS peptide, 10 μM LY294002, 10 μM PD98059 for 24 hours or were transfected with BRCA1-IRIS siRNA for 72 hours.

[5] = tested on: AKT, p-AKT, p-FOXO and FOXO3a; test: Signalling proteins in MDA-MB-231 and MDA-MB-468 cells (Western); settings: 5 μM IRIS peptide, 10 μM LY294002 or 10 μM PD98059, 24 hours
Excerpt: This was completely in line with decreased MDM2 and Skp2 (the ubiquitin ligases responsible for p-FOXO degradation) expression in BRCA1-IRIS silenced and BRCA1-IRIS and AKT inactivated cells (FIG. 87).

Compound	effect on survival of HOSE versus HOSE/IRIS cells [1]	effect on survival of HME versus HME/IRIS cells [2]	AKT and ERK expression and activation [3]	MDM2 and Skp2 expression [3]	BRCA1-IRIS expression [4]	p-FOXO and FOXO3a levels [5]
COCC(=O)NC/C=C/c1ccc2ncnc(Nc3ccc(Oc4ccc(C)nc4)c(C)c3)c2c1 [CP-724714]	significantly decreased survival of HOSE/IRIS cells only	specifically reduced survival in HME/IRIS and not HME cells	–	–	–	–
C#Cc1cccc(Nc2ncnc3cc(OCCOC)c(OCCOC)cc23)c1 [Erlotinib]	equally decreased survival of HOSE and HOSE/IRIS cells	reduced survival of both cell lines	–	–	–	–
COC(=O)[C@@]1(O)C[C@H]2O[C@]1(C)n1c3ccccc3c3c4c(c5c6ccccc6n2c5c31)C(=O)NC4 [K252a]	significantly decreased survival of HOSE/IRIS cells only	–	–	–	–	–
COc1cccc(-c2cc(=O)c3ccccc3o2)c1N [PD98059]	significantly decreased survival of HOSE/IRIS cells only	specifically reduced survival in HME/IRIS and not HME cells	significantly inactivated their cognate protein	reduced Skp2 and not MDM2 expression	significantly reduced BRCA1-IRIS expression in MDA-MB-231 and to a lesser degree in MDA-MB-468	no effect
C[S+]([O-])c1ccc(-c2nc(-c3ccncc3)c(-c3ccc(F)cc3)[nH]2)cc1 (stereo not shown) [SB203580]	equally decreased survival of HOSE and HOSE/IRIS cells	no effect on either cell line	–	–	–	–
